Data published in patent publication US20240287108A1, “nSMASE2 INHIBITOR PRODRUGS WITH ENHANCED ORAL AND BRAIN EXPOSURES” (The Johns Hopkins University, priority 2021, published 2024).
Like-named read-outs stand apart in the source and are kept apart here.

Key:
[1] = in vivo pharmacokinetic studies in mice (Example 1); parameters: species or system mouse; conditions: mice; for AUC / Tmax / Cmax: po
Description: 1.2.1 In vitro metabolic stability assessment. In vitro metabolic stability assessment was performed using mouse plasma, and liver homogenates. For the liver homogenates, washed tissues were diluted 10-fold in 0.1 M potassium phosphate buffer and homogenized using a probe sonicator. To evaluate the stability of the intact prodrug over time, each of the tissue matrix were aliquoted to 1 mL and then spiked with 10 μM of corresponding prodrugs followed by incubation in an orbital shaker at 37° C. for 1 h (in triplicate). Sample from each incubation at predetermined time points (0 min, and 1 h) was quenched with three volumes of acetonitrile containing the internal standard (IS: losartan: 0.5 μm). Samples were vortex-mixed for 30 secs and centrifuged at 10,000 RPM for 10 min at 4° C. Disappearance of the intact compound was measured using liquid chromatography tandem mass spectrometry (LC-MS/MS). 1.2.2 In vivo pharmacokinetic studies in mice. Male CD-1 mice (n=3) were used to study the pharmacokinetic profiles of representive prodrug compounds. […] Blood and brain were collected after sacrificing the mice at predetermined time points. Plasma was harvested from blood by centrifugation at 3,000 RPM for 15 min and stored at −80° C. Brain tissues were harvested following blood collection and immediately snap frozen in liquid nitrogen and stored at −80° C. until LC-MS/MS analysis. […] Brain tissues were diluted 1:5 w/v with acetonitrile containing losartan (0.5 μm) and homogenized, followed by vortex-mixing and centrifugation at 10,000 RPM for 10 min at 4° C. A 50 μL aliquot of the supernatant was diluted with 50 μL of water and transferred to 250 μL polypropylene autosampler vials sealed with teflon caps. Then, 2 μL of the sample was injected into the LC-MS/MS system for analysis.

[2] = in vitro stability in CES1−/− mouse brain homogenates; assay type: in vitro ADME; conditions: CES1−/− mouse brain homogenate, 10 μM, 37° C.
Description: (§1) All synthesized prodrugs were next screened for in vitro stability in carboxylesterase 1 knockout (CES1^−/−) mouse plasma, as well as CES1^−/− mouse brain and liver homogenates (Table 2-1). We have previously reported that CES1^−/− mouse model recapitulates human prodrug metabolism.
(§2) For the tissue homogenates, washed tissues were diluted 10-fold in 0.1 M potassium phosphate buffer and homogenized using a probe sonicator. To evaluate the stability of the intact prodrug over time, each of the crude homogenates and plasma were aliquoted to 1 mL and then spiked with a final assay concentration of 10 μM of each prodrug followed by incubation in an orbital shaker at 37° C. for 1 h (in triplicate). Sample from each incubation at predetermined time points (0 min, and 1 h) was quenched with three volumes of acetonitrile containing the internal standard (IS; losartan: 0.5 μm). Samples were vortex-mixed for 30 secs and centrifuged at 10,000×g for 10 min at 4° C. Disappearance of intact prodrugs from these samples were performed on a Dionex ultra-high-performance LC system coupled with Q Exactive Focus orbitrap mass spectrometer (Thermo Fisher Scientific Inc., Waltham MA). […] The mobile phase consisted of 0.1% formic acid in water and 0.1% formic acid in acetonitrile. Pumps were operated at a flow rate of 0.4 mL/min for 9 min using gradient elution. The mass spectrometer controlled by Xcalibur software 4.0.27.13 (Thermo Scientific) was operated with a heated electrospray ionization (HESI) ion source in positive ionization mode. Quantification of the prodrugs were performed in the full-scan mode (from m/z 50 to 1600) by comparing t=0 samples with t=60 min samples.

[3] = in vitro stability in CES1−/− mouse plasma; assay type: in vitro ADME; conditions: 10 μM
Description: All synthesized prodrugs were next screened for in vitro stability in carboxylesterase 1 knockout (CES1^−/−) mouse plasma, as well as CES1^−/− mouse brain and liver homogenates (Table 2-1). We have previously reported that CES1^−/− mouse model recapitulates human prodrug metabolism. Tenora et al., 2019.
Zimmermann et al., 2018. For the tissue homogenates, washed tissues were diluted 10-fold in 0.1 M potassium phosphate buffer and homogenized using a probe sonicator. To evaluate the stability of the intact prodrug over time, each of the crude homogenates and plasma were aliquoted to 1 mL and then spiked with a final assay concentration of 10 μM of each prodrug followed by incubation in an orbital shaker at 37° C. for 1 h (in triplicate). Sample from each incubation at predetermined time points (0 min, and 1 h) was quenched with three volumes of acetonitrile containing the internal standard (IS; losartan: 0.5 μm). Samples were vortex-mixed for 30 secs and centrifuged at 10,000×g for 10 min at 4° C. Disappearance of intact prodrugs from these samples were performed on a Dionex ultra-high-performance LC system coupled with Q Exactive Focus orbitrap mass spectrometer (Thermo Fisher Scientific Inc., Waltham MA). The separation of analytes was achieved using the Agilent Eclipse Plus column (100×2.1 mm i.d.; maintained at 35° C.) packed with a 1.8 μm C18 stationary phase. The mobile phase consisted of 0.1% formic acid in water and 0.1% formic acid in acetonitrile. Pumps were operated at a flow rate of 0.4 mL/min for 9 min using gradient elution. The mass spectrometer controlled by Xcalibur software 4.0.27.13 (Thermo Scientific) was operated with a heated electrospray ionization (HESI) ion source in positive ionization mode. Quantification of the prodrugs were performed in the full-scan mode (from m/z 50 to 1600) by comparing t=0 samples with t=60 min samples.

[4] = in vitro stability in CES1−/− mouse liver homogenates; assay type: in vitro ADME; conditions: CES1−/− mouse liver homogenate, 10 μM, 37° C.
Description: as §1, §2

[5] = male, CD-1, mouse, intact prodrug, brain, 10 mg/kg eqv
[6] = male, CD-1, mouse, intact prodrug, plasma, 10 mg/kg eqv
[7] = CES1−/− (carboxylesterase 1 knockout), mouse, plasma

Compound: COc1cc(-c2nc(-c3ccccc3)c(-c3cccs3)[nH]2)cc(OC)c1OC(=O)c1ccc[n+](C)c1.[I-] [Compound 6]
- brain levels of DPTIP ([1]; oral 10 mg/kg DPTIP equivalent): approximately 150 nM

Compound: CCCCCC(=O)Oc1c(OC)cc(-c2nc(-c3ccccc3)c(-c3cccs3)[nH]2)cc1OC [Compound P2, 2,6-Dimethoxy-4-(4-phenyl-5-(thiophen-2-yl)-1H-imidazol-2-yl)phenyl hexanoate]
- Kp ([1]; male, CD-1, mouse, brain and plasma, oral, intact prodrug, 10 mg/kg eqv, read-out: Brain:Plasma ratio): 0.23
- AUC [1, 5]: 1.66 nM·h
- Tmax [1, 5]: 15 min
- Cmax ([1]; male, CD-1, mouse, intact prodrug, brain, 10 mg/kg eqv, read-out: Cmax): 9.8 ± 0.6 nM
- AUC [1, 6]: 7.04 nM·h
- Tmax [1, 6]: 15 min
- Cmax ([1]; male, CD-1, mouse, intact prodrug, plasma, 10 mg/kg eqv, read-out: Cmax): 51.1 ± 4.6 nM

Compound: COc1cc(-c2nc(-c3ccccc3)c(-c3cccs3)[nH]2)cc(OC)c1OC(=O)C(C)(C)C [Compound P4, 2,6-Dimethoxy-4-(4-phenyl-5-(thiophen-2-yl)-1H-imidazol-2-yl)phenyl pivalate]
- Stability in mouse (% remaining at 1h) Mean + Std Error, Brain [2]: 93 ± 1%

Compound: COc1cc(-c2nc(-c3ccccc3)c(-c3cccs3)[nH]2)cc(OC)c1OC(=O)N(C)C [Compound P5, 2,6-Dimethoxy-4-(4-phenyl-5-(thiophen-2-yl)-1H-imidazol-2-yl)phenyl dimethylcarbamate]
- Stability in mouse (% remaining at 1h) Mean + Std Error, Brain [2]: 100 ± 2%
- Stability in mouse (% remaining at 1h) Mean + Std Error, Plasma ([3]; CES1−/− mouse plasma, 37° C.): 96 ± 3%
- Stability in mouse (% remaining at 1h) Mean + Std Error, Liver [4]: 100 ± 1%
- Cmax ([1]; male, CD-1, mouse, in vivo, 10 mg/kg, oral 10 mg/kg DPTIP equivalent, read-out: plasma Cmax of intact prodrug): 4300 nM
- improved oral absorption as intact versus DPTIP ([1]; plasma Cmax, oral 10 mg/kg DPTIP equivalent): 10 ×

Compound: CCCCCN(C)C(=O)Oc1c(OC)cc(-c2nc(-c3ccccc3)c(-c3cccs3)[nH]2)cc1OC [Compound P7, 2,6-Dimethoxy-4-(5-phenyl-4-(thiophen-2-yl)-1H-imidazol-2-yl)phenyl methyl (pentyl) carbamate]
- Stability in mouse (% remaining at 1h) Mean + Std Error, Plasma ([3]; CES1−/− mouse plasma, 37° C.): 50 ± 2%
- Stability in mouse (% remaining at 1h) Mean + Std Error, Liver [4]: 85 ± 3%

Compound: CCCCCNC(=O)Oc1c(OC)cc(-c2nc(-c3ccccc3)c(-c3cccs3)[nH]2)cc1OC [Compound P8, 2,6-Dimethoxy-4-(5-phenyl-4-(thiophen-2-yl)-1H-imidazol-2-yl)phenyl pentylcarbamate]
- Stability in mouse (% remaining at 1h) Mean + Std Error, Plasma ([3]; CES1−/− mouse plasma, 37° C.): 60 ± 6%
- Stability in mouse (% remaining at 1h) Mean + Std Error, Liver [4]: 83 ± 2%

Compound: CCCCCCCNC(=O)Oc1c(OC)cc(-c2nc(-c3ccccc3)c(-c3cccs3)[nH]2)cc1OC [Compound P9, 2,6-Dimethoxy-4-(5-phenyl-4-(thiophen-2-yl)-1H-imidazol-2-yl)phenyl heptylcarbamate]
- Stability in mouse (% remaining at 1h) Mean + Std Error, Brain [2]: 84 ± 4%
- Stability in mouse (% remaining at 1h) Mean + Std Error, Plasma ([3]; CES1−/− mouse plasma, 37° C.): 60 ± 4%
- Stability in mouse (% remaining at 1h) Mean + Std Error, Liver [4]: 97 ± 4%

Compound: CCC1CCCC(CC)N1C(=O)Oc1c(OC)cc(-c2nc(-c3ccccc3)c(-c3cccs3)[nH]2)cc1OC (centres unmarked) [Compound P10, 2,6-Dimethoxy-4-(5-phenyl-4-(thiophen-2-yl)-1H-imidazol-2-yl)phenyl 2,6-diethylpiperidine-1-carboxylate]
- Stability in mouse (% remaining at 1h) Mean + Std Error, Brain [2]: 90 ± 1%
- Stability in mouse (% remaining at 1h) Mean + Std Error, Plasma [3, 7]: 78 ± 5%
- Stability in mouse (% remaining at 1h) Mean + Std Error, Liver [4]: 51 ± 1%

Compound: CCCN(CCC)C(=O)Oc1c(OC)cc(-c2nc(-c3ccccc3)c(-c3cccs3)[nH]2)cc1OC [Compound P11, 2,6-Dimethoxy-4-(5-phenyl-4-(thiophen-2-yl)-1H-imidazol-2-yl)phenyl dipropylcarbamate]
- Stability in mouse (% remaining at 1h) Mean + Std Error, Brain [2]: 95 ± 4%
- Stability in mouse (% remaining at 1h) Mean + Std Error, Plasma ([3]; CES1−/− mouse plasma, 37° C.): 99 ± 2%
- Stability in mouse (% remaining at 1h) Mean + Std Error, Liver [4]: 62 ± 4%

Compound: COc1cc(-c2nc(-c3ccccc3)c(-c3cccs3)[nH]2)cc(OC)c1OC(=O)N1C2CCCC1CC2 [Compound P12, 2,6-Dimethoxy-4-(5-phenyl-4-(thiophen-2-yl)-1H-imidazol-2-yl)phenyl 8-azabicyclo[3.2.1]octane-8-carboxylate]
- Stability in mouse (% remaining at 1h) Mean + Std Error, Plasma [3, 7]: 85 ± 9%

Compound: COc1cc(-c2nc(-c3ccccc3)c(-c3cccs3)[nH]2)cc(OC)c1OC(=O)N1C2CCC1CC(N1CCCCC1)C2 (centres unmarked) [Compound P13, 2,6-Dimethoxy-4-(5-phenyl-4-(thiophen-2-yl)-1H-imidazol-2-yl)phenyl 3-(piperidin-1-yl)-8-azabicyclo[3.2.1]octane-8-carboxylate]
- Stability in mouse (% remaining at 1h) Mean + Std Error, Brain [2]: 84 ± 1%
- Stability in mouse (% remaining at 1h) Mean + Std Error, Plasma ([3]; CES1−/− mouse plasma, 37° C.): 87 ± 2%
- Stability in mouse (% remaining at 1h) Mean + Std Error, Liver [4]: 78 ± 4%

Compound: COc1cc(-c2nc(-c3ccccc3)c(-c3cccs3)[nH]2)cc(OC)c1OP(=O)(O)O [Compound P14, 2,6-Dimethoxy-4-(4-phenyl-5-(thiophen-2-yl)-1H-imidazol-2-yl)phenyl dihydrogen phosphate]
- Stability in mouse (% remaining at 1h) Mean + Std Error, Brain [2]: 102 ± 2%
- Stability in mouse (% remaining at 1h) Mean + Std Error, Plasma ([3]; CES1−/− mouse plasma, 37° C.): 91 ± 4%
- Stability in mouse (% remaining at 1h) Mean + Std Error, Liver [4]: 55 ± 1%

Compound: COc1cc(-c2nc(-c3ccccc3)c(-c3cccs3)[nH]2)cc(OC)c1OCOP(=O)(O)O [Compound P15, (2,6-Dimethoxy-4-(4-phenyl-5-(thiophen-2-yl)-1H-imidazol-2-yl)phenoxy) methyl dihydrogen phosphate]
- Stability in mouse (% remaining at 1h) Mean + Std Error, Liver [4]: 21 ± 0%
